# Measurements taken from US20250049914A1, “STEROID ACID-PEPTIDE BASED INTRACELLULAR CARGO DELIVERY” (DEFENCE THERAPEUTICS INC., priority 2021, published 2025).
# Where no end group is shown, it is not given here.
# What was measured:
# WT MSCs [1] = experiment: OVA-AF647 uptake by WT MSCs; format: cell-based, mouse; settings: OVA-AF647 admixed with CA-hnRNPA1
# Experimental: (§1) To evaluate OVA uptake, MSCs were first treated with […] of OVA-AF647 admixed with CA-hnRNPA1 for 1 hour at 37° C. then assessed for their fluorescence intensity by flow-cytometry. To evaluate antigen processing, MSCs were incubated with 10 µg/mL OVA-DQ® admixed with A1 at 37° C. Half an hour later, cells were washed, and regular media added. At the end of the indicated incubation time, cells were collected and washed with cold PBS containing 2% FBS. Fluorescence was monitored by flow cytometry.
# human WT MSCs = experiment: OVA uptake by human MSCs, flow cytometry; format: cell-based; settings: CA-hnRNPA1-treated human MSCs
# [2] = system: cross-presenting mesenchymal stromal cell line (cpMSC); experiment: Antigen-presentation assay using the B3Z reporter system, cross-presenting MSC line; format: cell-based; settings: cpMSCs, OVA admixed, vs OVA alone or OVA mixed with CA-SV40NLS
# WT MSCs [3] = experiment: OVA-DQ processing by WT MSCs; format: cell-based, mouse; settings: OVA-DQ admixed with CA-hnRNPA1
# Experimental: as §1
# cpMSCs = experiment: OVA-DQ processing in cpMSCs, flow cytometry; format: cell-based; settings: various molar ratios
# Experimental: For this experiment, a cross-presenting mesenchymal stromal cell line (cpMSC) was used as the antigen presenting cells, which were pulsed with DQ™ Ovalbumin (i.e., OVADQ). OVADQ fluorescence was measured by flow cytometry. Different ratios of CA (NLS1 RSP17 [FIG. 17A]; NLS3 RPS17 [FIG. 17B]; and PQBP-1 [FIG. 17C] to antigen (CA: OVA=22:1, 12:1, 8:1, 4:1, and 2:1) were tested (hnRNPA1 M9 NLS at 2:1).
# To further dissect the effect of bile acid peptide conjugates on antigen presentation, antigen internalization and processing were evaluated. cpMSCs were pulsed with OVA-labelled with AF647 in the presence of various molar ratios of different bile acid peptide conjugates, NLS1-RPS17 [FIG. 16A]; NLS3 RPS17 [FIG. 16B]; PQBP-1 [FIG. 16C]; and hnRNPA1 M9 NLS [FIG. 6]) and fluorescence was assessed by flow cytometry. […] OVA processing was assessed by pulsing cpMSCs with DQ™-Ovalbumin (OVA-DQ) in the presence of the same bile acid peptide conjugates as in FIGS. 6 and 16.
substance,measurement,setting,value
"CA-hnRNPA1: cholic acid conjugated to hnRNPA1 M9 NLS peptide CSNFGPMKGGNFGGRSSGPY (SEQ ID NO: 4) (not fully specified (N-terminus); also: cholic acid conjugate, site not given here)",OVA uptake by WT MSCs,WT MSCs [1],increase in OVA uptake
same,OVA uptake by human MSCs,human WT MSCs,increase of OVA uptake
same,antigen-presentation activity of cholic acid-NLS peptide conjugates (B3Z response),[2],amongst the best enhancers of cross presentation
same,antigen-presentation activity of cholic acid-NLS peptide conjugates (B3Z response),[2]; listed as CA-hnRNPA1 M9 NLS,highly enhance cross presentation
same,OVA processing by WT MSCs,WT MSCs [3],increase in OVA processing
same,OVA processing (OVA-DQ fluorescence),cpMSCs,enhance OVA processing
